Patent US6825185B2, “Substituted aryl compounds as novel cyclooxygenase-2 selective inhibitors, compositions and methods of use” (NitroMed, Inc., priority 2000, dated 2004)

How the values were obtained:
[1] = molecular target: COX-1 (Homo sapiens, UniProt P23219); experiment: Human COX-1 enzyme activity (COX Inhibitor Screening Assay, prostaglandin EIA); assay type: biochemical; parameters: purchased Cayman Chemical; details: test compound at 100 μM
Protocol: The human COX-1 and COX-2 enzyme activities and the measurement of the prostaglandin products synthesized were performed using the COX Inhibitor Screening Assay (Cayman Chemical, Ann Arbor, Mich.), which also contained the Prostaglandin Screening EIA Kit, used for prostaglandin quantification). The test compounds were dissolved at 50 times the highest final reaction concentration in DMSO or any other suitable solvent as stock solutions. These stock solutions were then diluted in the same solvent. Eight glass test tubes (13×100 mm) were placed in a 25° C. water bath. To each test tube was added 950 μL of reaction buffer (0.1 M Tris-HCl, pH 8.0, containing 5 mM EDTA, and 2 mM phenol), 10 μL of 100 µM heme solution, and 10 μL (5 units) of either human COX-1 or COX-2 enzyme and the resulting mixture was incubated for 2 minutes. Twenty μL of the solvent was added to one tube (100% initial activity or solvent control) and 20 μL of each dilution of the test compound was added to one tube each. Each tube was vortexed immediately after the addition. The enzyme was incubated with the inhibitor for 20 minutes at 25° C. The enzymatic reaction was then initiated by the addition of 10 μL of freshly prepared 10 mM arachidonic acid (neutralized with KOH), vortexed and then incubated for 2 minutes (or, in some cases as indicated, 30 seconds) at 37° C. The reaction was terminated by the addition of 50 μL of 1 M HCl, vortexed and placed at room temperature. One hundred μL of a saturated stannous chloride solution (50 mg/mL of 0.1 M HCl) was added and the reaction mixture was allowed to stand at room temperature for at least 5 minutes.
The prostaglandins (PG) produced in the reactions were assayed, after a 2,000-fold dilution, using the Prostaglandin Screening EIA Kit (Cayman Chemical, Ann Arbor, Mich.). The assay contains an antibody with broad specificity for all the prostaglandin families (PGF, PGE, PGD, and thromboxane B-type) synthesized in the COX-1/COX-2 reactions. The synthesized prostaglandin competes with a PG-tagged acetylcholine esterase tracer for binding to the PG antibody. Binding of synthesized PG lowers the colorimetric development of the Ellman's Reagent (computed as %B/B0). The actual amount of synthesized PG was interpolated from a standard curve using known amounts of supplied prostaglandin E2 (PGE2) (PGE2 concentration vs. %B/B0). The data generated were the mean±standard deviation of triplicate wells in the EIA for a single reaction at a given inhibitor concentration. A plot of % of control (i.e., the solvent control without inhibitor) vs. test compound inhibitor concentration for both isoenzymes was used to determine the IC50 's for COX-1 and COX-2 for that test compound, when IC50's were calculated. The % inhibition for COX-1 and COX-2 enzyme activity by the test compounds at the indicated concentrations are given in Table 1.

[2] = molecular target: T1, COX-2 (Homo sapiens, UniProt P35354); experiment: COX-2 enzyme activity in human whole blood (LPS induced, thromboxane B2 EIA); assay type: cell-based; parameters: Human blood (≈50 mL) from male or female donors who had not received any aspirin or NSAIDs for 14 days; endogenous in cells; host or cells: human whole blood from donors, LPS-induced; details: test compound at 10 μM
T1 sequence (P35354 18-604): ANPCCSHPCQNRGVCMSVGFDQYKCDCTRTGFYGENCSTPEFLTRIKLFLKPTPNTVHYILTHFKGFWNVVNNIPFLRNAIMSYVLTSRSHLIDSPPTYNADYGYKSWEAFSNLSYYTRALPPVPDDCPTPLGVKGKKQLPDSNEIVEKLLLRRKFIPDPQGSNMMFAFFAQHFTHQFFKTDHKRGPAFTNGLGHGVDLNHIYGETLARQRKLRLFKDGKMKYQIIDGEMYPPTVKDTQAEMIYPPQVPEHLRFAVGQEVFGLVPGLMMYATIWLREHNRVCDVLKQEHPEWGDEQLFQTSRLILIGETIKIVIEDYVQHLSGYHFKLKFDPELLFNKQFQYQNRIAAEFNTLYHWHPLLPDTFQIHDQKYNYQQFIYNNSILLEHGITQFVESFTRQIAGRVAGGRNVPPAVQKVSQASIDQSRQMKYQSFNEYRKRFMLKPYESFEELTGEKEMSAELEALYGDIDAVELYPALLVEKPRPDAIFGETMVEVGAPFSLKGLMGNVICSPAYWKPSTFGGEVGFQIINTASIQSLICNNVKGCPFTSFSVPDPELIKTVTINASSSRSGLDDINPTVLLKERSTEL

COX-1, sequence (P23219 24-599): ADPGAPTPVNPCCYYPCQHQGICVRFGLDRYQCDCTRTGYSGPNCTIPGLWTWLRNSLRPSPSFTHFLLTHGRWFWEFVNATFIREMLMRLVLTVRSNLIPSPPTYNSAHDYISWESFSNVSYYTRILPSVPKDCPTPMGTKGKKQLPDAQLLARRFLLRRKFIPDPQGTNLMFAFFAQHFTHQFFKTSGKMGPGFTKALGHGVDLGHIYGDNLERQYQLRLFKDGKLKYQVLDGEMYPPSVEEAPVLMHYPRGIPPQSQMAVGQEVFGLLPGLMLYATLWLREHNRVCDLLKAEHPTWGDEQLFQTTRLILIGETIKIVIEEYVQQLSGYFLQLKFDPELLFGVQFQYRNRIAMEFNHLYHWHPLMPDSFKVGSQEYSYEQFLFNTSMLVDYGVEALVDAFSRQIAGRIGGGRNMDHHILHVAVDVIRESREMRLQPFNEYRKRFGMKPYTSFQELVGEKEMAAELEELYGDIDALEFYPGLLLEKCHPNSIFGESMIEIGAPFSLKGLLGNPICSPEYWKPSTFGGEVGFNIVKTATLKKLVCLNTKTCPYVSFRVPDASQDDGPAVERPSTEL

SMILES	COX-1 Inhibition (% at 100 μM) [1] [%]	COX-2 Inhibition (% at 10 μM) [2] [%]
CS(=O)(=O)c1ccc(-c2cc3c(cc2C=C2CCCC2)OCO3)cc1 [Example 10a, 4-(6-(Cyclopentylidenemethyl)(2H-benzo(3,4-d)1,3-dioxolan-5-yl))-1-(methylsulfonyl)benzene]	30	90
CS(=O)(=O)c1ccc(-c2cc3c(cc2C(=O)c2ccccc2)OCO3)cc1 [Example 3d, 6-(4-(Methylsulfonyl)phenyl)(2H-benzo(d)1,3-dioxolan-5-yl) phenyl ketone]	0	60
CS(=O)(=O)c1ccc(-c2cc3c(cc2Cc2cccnc2)OCO3)cc1 [Example 6c, 4-(Methylsulfonyl)-1-(6-(3-pyridylmethyl)(2H-benzo(3,4-d)1,3-dioxolan-5-yl))benzene]	30	10
CS(=O)(=O)c1ccc(-c2cc3c(cc2CN2CCCCC2=O)OCO3)cc1 [Example 9c]	70	30
CS(=O)(=O)c1ccc(-c2cc3c(cc2Cc2cc(F)cc(F)c2)OCO3)cc1 [Example 15c, 5-(1-(3′,5′-Difluorophenyl)methyl)-1,2-methylenedioxy-4-(4-methylsulfonylphenyl)benzene]	15	85
CS(=O)(=O)c1ccc(-c2cc3c(cc2CC2CCCCC2)OCO3)cc1 [Example 1e, 1-(6-(Cyclohexylmethyl)(2-H-benzo(3,4-d)1,3-dioxolen-5-yl))-4-(methylsulfonyl) benzene]	0	90
